# “And” between values parts separate entries of the source, which are not always exact repeats. Identical values can stand only once. Like-named read-outs stand apart in the source and are kept apart here.
# Tested on: mtrC-lacZ expression
# Assay type: cell-based, Neisseria gonorrhoeae
# Conditions: for Plate-6 (Testosterone) Miller units, Mean / Plate-6 (Testosterone) Miller units: left (mtrC) half of sheet; for β-galactosidase activity, Mean / β-galactosidase activity, single replicate: mtrCDE block (c1-c37), ΔmtrR + mtrR R176E in trans
# [1] = WT, testosterone 6.25 µM, right block Plate-4
# [2] = WT, testosterone 25 µM, right block Plate-4
# [3] = WT, testosterone 50 µM, right block Plate-4
# [4] = fourth strain (lower plate half, wells 7-12; not named), testosterone 6.25 µM, right block Plate-4
# [5] = fourth strain (lower plate half, wells 7-12; not named), testosterone 12.5 µM, right block Plate-4
# [6] = mtrC-lacZ, ΔmtrR + mtrR D171A in trans, 6.25 µM hormone, single replicate
# [7] = mtrC-lacZ, ΔmtrR + mtrR D171A in trans, 12.5 µM hormone, single replicate
# [8] = mtrC-lacZ, ΔmtrR + mtrR D171A in trans, 25 µM hormone, single replicate
# [9] = mtrC-lacZ, ΔmtrR + mtrR D171A in trans, 50 µM hormone, single replicate
# [10] = mtrC-lacZ, ΔmtrR + mtrR WT in trans, 6.25 µM hormone, single replicate
# [11] = mtrC-lacZ, ΔmtrR + mtrR WT in trans, 12.5 µM hormone, single replicate
# [12] = mtrC-lacZ, ΔmtrR + mtrR WT in trans, 25 µM hormone, single replicate
# [13] = mtrC-lacZ, ΔmtrR + mtrR WT in trans, 50 µM hormone, single replicate
# [14] = mtrCDE, fourth strain (lower plate half, wells 7-12; not named), testosterone 1 µM, left block Plate-4
# [15] = mtrCDE, fourth strain (lower plate half, wells 7-12; not named), testosterone 10 µM, left block Plate-4
# [16] = mtrCDE, fourth strain (lower plate half, wells 7-12; not named), testosterone 25 µM, left block Plate-4
# [17] = mtrCDE, fourth strain (lower plate half, wells 7-12; not named), testosterone 50 µM, left block Plate-4
# [18] = mtrCDE, fourth strain (lower plate half, wells 7-12; not named), testosterone 100 µM, left block Plate-4
smiles,measurement,setting,value
"C[C@]12CC[C@H]3[C@@H](CCC4=CC(=O)CC[C@@]43C)[C@@H]1CC[C@@H]2O [Testosterone, testosterone]","Miller units, Mean","6.25 µM hormone, plate columns 1-6 (WT), mean of plate rows 1-4 (mtrC)",141 Miller units
same,Miller units,"6.25 µM hormone, plate columns 1-6 (WT), plate rows 1-4 (mtrC), single well",164 Miller units and 134 Miller units and 127 Miller units and 139 Miller units
same,Miller units,"6.25 µM hormone, plate columns 7-12 (second strain not given), plate rows 1-4 (mtrC), single well",276 Miller units and 252 Miller units and 246 Miller units and 285 Miller units
same,"Miller units, Mean","6.25 µM hormone, plate columns 7-12 (second strain), mean of plate rows 1-4 (mtrC)",265 Miller units
same,"Plate-6 (Testosterone) Miller units, Mean","6.25 µM, plate column 3, mean of plate rows 5-8",43 Miller units
same,Plate-6 (Testosterone) Miller units,"6.25 µM, plate column 3, plate rows 5-8, single wells",39 Miller units and 46 Miller units and 47 Miller units
same,"Plate-6 (Testosterone) Miller units, Mean","6.25 µM, plate column 9, mean of plate rows 5-8",64 Miller units
same,Plate-6 (Testosterone) Miller units,"6.25 µM, single wells",55 Miller units and 57 Miller units and 65 Miller units and 80 Miller units
same,"Miller units, Mean","12.5 µM hormone, plate columns 1-6 (WT), mean of plate rows 1-4 (mtrC)",166 Miller units
same,Miller units,"12.5 µM hormone, plate columns 1-6 (WT), plate rows 1-4 (mtrC), single well",186 Miller units and 164 Miller units and 155 Miller units and 161 Miller units
same,Miller units,"12.5 µM hormone, plate columns 7-12 (second strain not given), plate rows 1-4 (mtrC), single well",296 Miller units and 248 Miller units and 237 Miller units and 196 Miller units
same,"Miller units, Mean","12.5 µM hormone, plate columns 7-12 (second strain), mean of plate rows 1-4 (mtrC)",244 Miller units
same,"Plate-6 (Testosterone) Miller units, Mean","12.5 µM, plate column 4, mean of plate rows 5-8",52 Miller units
same,Plate-6 (Testosterone) Miller units,"12.5 µM, plate column 4, plate rows 5-8, single wells",51 Miller units and 50 Miller units and 56 Miller units and 52 Miller units
same,"Plate-6 (Testosterone) Miller units, Mean","12.5 µM, plate column 10, mean of plate rows 5-8",62 Miller units
same,Plate-6 (Testosterone) Miller units,"12.5 µM, plate column 10, plate rows 5-8, single wells",58 Miller units and 54 Miller units and 63 Miller units and 74 Miller units
same,"Miller units, Mean","25 µM hormone, plate columns 1-6 (WT), mean of plate rows 1-4 (mtrC)",178 Miller units
same,Miller units,"25 µM hormone, plate columns 1-6 (WT), plate rows 1-4 (mtrC), single well",189 Miller units and 186 Miller units and 165 Miller units and 170 Miller units
same,Miller units,"25 µM hormone, plate columns 7-12 (second strain not given), plate rows 1-4 (mtrC), single well",284 Miller units and 276 Miller units and 289 Miller units and 254 Miller units
same,"Miller units, Mean","25 µM hormone, plate columns 7-12 (second strain), mean of plate rows 1-4 (mtrC)",276 Miller units
same,"Plate-6 (Testosterone) Miller units, Mean","25 µM, plate column 5, mean of plate rows 5-8",63 Miller units
same,Plate-6 (Testosterone) Miller units,"25 µM, plate column 5, plate rows 5-8, single wells",68 Miller units and 55 Miller units and 57 Miller units and 70 Miller units
same,"Plate-6 (Testosterone) Miller units, Mean","25 µM, plate column 11, mean of plate rows 5-8",65 Miller units
same,Plate-6 (Testosterone) Miller units,"25 µM, plate column 11, plate rows 5-8, single wells",64 Miller units and 60 Miller units and 68 Miller units and 67 Miller units
same,"Miller units, Mean","50 µM hormone, plate columns 1-6 (WT), mean of plate rows 1-4 (mtrC)",195 Miller units
same,Miller units,"50 µM hormone, plate columns 1-6 (WT), plate rows 1-4 (mtrC), single well",222 Miller units and 215 Miller units and 166 Miller units and 177 Miller units
same,Miller units,"50 µM hormone, plate columns 7-12 (second strain not given), plate rows 1-4 (mtrC), single well",310 Miller units and 287 Miller units and 255 Miller units and 237 Miller units
same,"Miller units, Mean","50 µM hormone, plate columns 7-12 (second strain), mean of plate rows 1-4 (mtrC)",272 Miller units
same,"Plate-6 (Testosterone) Miller units, Mean","50 µM, plate column 6, mean of plate rows 5-8",68 Miller units
same,Plate-6 (Testosterone) Miller units,"50 µM, plate column 6, plate rows 5-8, single wells",76 Miller units and 71 Miller units and 62 Miller units and 63 Miller units
same,"Plate-6 (Testosterone) Miller units, Mean","50 µM, plate column 12, mean of plate rows 5-8",57 Miller units
same,Plate-6 (Testosterone) Miller units,"50 µM, single wells",65 Miller units and 49 Miller units and 56 Miller units and 58 Miller units
same,"Miller units, Mean","Mean of plate rows 1-4, plate columns 1-6 (first strain), 6.25 µM hormone",69 Miller units
same,"Miller units, Mean","Mean of plate rows 1-4, plate columns 1-6 (first strain), 12.5 µM hormone",81 Miller units
same,"Miller units, Mean","Mean of plate rows 1-4, plate columns 1-6 (first strain), 25 µM hormone",98 Miller units
same,"Miller units, Mean","Mean of plate rows 1-4, plate columns 1-6 (first strain), 50 µM hormone",117 Miller units
same,"Miller units, Mean","Mean of plate rows 1-4, plate columns 7-12 (second strain), 6.25 µM hormone",96 Miller units
same,"Miller units, Mean","Mean of plate rows 1-4, plate columns 7-12 (second strain), 12.5 µM hormone",102 Miller units
same,"Miller units, Mean","Mean of plate rows 1-4, plate columns 7-12 (second strain), 25 µM hormone",112 Miller units
same,"Miller units, Mean","Mean of plate rows 1-4, plate columns 7-12 (second strain), 50 µM hormone",119 Miller units
same,"Miller units, Mean",[1],81 Miller units
same,"Miller units, single replicate",[1],103 Miller units and 88 Miller units
same,"Miller units, single replicate","WT, testosterone 12.5 µM, right block Plate-4",126 Miller units
same,"Miller units, Mean",[2],130 Miller units
same,"Miller units, single replicate",[2],144 Miller units and 138 Miller units
same,"Miller units, Mean",[3],134 Miller units
same,"Miller units, single replicate",[3],161 Miller units and 150 Miller units
same,induction of mtrC expression,"complemented (MtrR+) strains, increasing hormone",could be induced
same,"Miller units, Mean",[4],47 Miller units
same,"Miller units, single replicate",[4],46 Miller units
same,"Miller units, Mean",[5],55 Miller units
same,"Miller units, single replicate",[5],56 Miller units
same,"Miller units, Mean","fourth strain (lower plate half, wells 7-12; not named), testosterone 25 µM, right block Plate-4",85 Miller units
same,"Miller units, Mean","fourth strain (lower plate half, wells 7-12; not named), testosterone 50 µM, right block Plate-4",79 Miller units
same,induction of mtrC expression,loss of MtrR or MtrR-D171A strain,abrogated
same,"Miller units, Mean","mtrC-lacZ, WT, 6.25 µM hormone",141 Miller units
same,"Miller units, Mean","mtrC-lacZ, WT, 12.5 µM hormone",166 Miller units
same,"Miller units, Mean","mtrC-lacZ, WT, 25 µM hormone",178 Miller units
same,"Miller units, Mean","mtrC-lacZ, WT, 50 µM hormone",195 Miller units
same,Miller units,[6],162 Miller units
same,β-galactosidase activity (Miller units),[6],162 Miller units and 167 Miller units and 161 Miller units and 191 Miller units
same,Miller units,[7],176 Miller units
same,β-galactosidase activity (Miller units),[7],176 Miller units and 177 Miller units and 161 Miller units and 186 Miller units
same,Miller units,[8],185 Miller units
same,β-galactosidase activity (Miller units),[8],185 Miller units and 179 Miller units and 168 Miller units and 147 Miller units
same,Miller units,[9],166 Miller units
same,β-galactosidase activity (Miller units),[9],166 Miller units and 158 Miller units and 156 Miller units
same,Miller units,[10],108 Miller units and 127 Miller units and 114 Miller units and 153 Miller units
same,β-galactosidase activity (Miller units),[10],108 Miller units and 127 Miller units and 114 Miller units and 153 Miller units
same,Miller units,[11],125 Miller units and 124 Miller units and 120 Miller units and 149 Miller units
same,β-galactosidase activity (Miller units),[11],125 Miller units and 124 Miller units and 120 Miller units and 149 Miller units
same,Miller units,[12],133 Miller units and 137 Miller units and 127 Miller units
same,β-galactosidase activity (Miller units),[12],133 Miller units and 137 Miller units and 127 Miller units
same,Miller units,[13],146 Miller units and 140 Miller units and 175 Miller units
same,β-galactosidase activity (Miller units),[13],146 Miller units and 140 Miller units and 175 Miller units
same,β-galactosidase activity (Miller units),"mtrC-lacZ, ΔmtrR strain, 6.25 µM hormone, single replicate",246 Miller units
same,β-galactosidase activity (Miller units),"mtrC-lacZ, ΔmtrR strain, 12.5 µM hormone, single replicate",237 Miller units
same,β-galactosidase activity (Miller units),"mtrC-lacZ, ΔmtrR strain, 25 µM hormone, single replicate",289 Miller units
same,β-galactosidase activity (Miller units),"mtrC-lacZ, ΔmtrR strain, 50 µM hormone, single replicate",255 Miller units
same,"Miller units, Mean","mtrC-lacZ, ΔmtrR, 6.25 µM hormone",265 Miller units
same,"Miller units, Mean","mtrC-lacZ, ΔmtrR, 12.5 µM hormone",244 Miller units
same,"Miller units, Mean","mtrC-lacZ, ΔmtrR, 25 µM hormone",276 Miller units
same,"Miller units, Mean","mtrC-lacZ, ΔmtrR, 50 µM hormone",272 Miller units
same,"β-galactosidase activity, Mean",1 µM,178 Miller units
same,"β-galactosidase activity, single replicate",1 µM,184 Miller units and 192 Miller units and 127 Miller units and 209 Miller units
same,"β-galactosidase activity, Mean",10 µM,206 Miller units
same,"β-galactosidase activity, single replicate",10 µM,290 Miller units and 186 Miller units and 155 Miller units and 194 Miller units
same,"β-galactosidase activity, single replicate",25 µM,208 Miller units and 213 Miller units and 178 Miller units and 198 Miller units
same,"β-galactosidase activity, Mean",50 µM,224 Miller units
same,"β-galactosidase activity, single replicate",50 µM,262 Miller units and 219 Miller units and 198 Miller units and 217 Miller units
same,"β-galactosidase activity, Mean",100 µM,238 Miller units
same,"β-galactosidase activity, single replicate",100 µM,255 Miller units and 223 Miller units and 213 Miller units and 260 Miller units
same,"Miller units, Mean","mtrCDE, WT, testosterone 1 µM, left block Plate-4",138 Miller units
same,"Miller units, Mean","mtrCDE, WT, testosterone 10 µM, left block Plate-4",235 Miller units
same,"Miller units, Mean","mtrCDE, WT, testosterone 25 µM, left block Plate-4",264 Miller units
same,"Miller units, Mean","mtrCDE, WT, testosterone 50 µM, left block Plate-4",229 Miller units
same,"Miller units, Mean","mtrCDE, WT, testosterone 100 µM, left block Plate-4",248 Miller units
same,"Miller units, Mean",[14],157 Miller units
same,"Miller units, single replicate",[14],182 Miller units
same,"Miller units, Mean",[15],190 Miller units
same,"Miller units, single replicate",[15],196 Miller units
same,"Miller units, Mean",[16],192 Miller units
same,"Miller units, single replicate",[16],225 Miller units and 177 Miller units
same,"Miller units, Mean",[17],201 Miller units
same,"Miller units, single replicate",[17],192 Miller units and 186 Miller units
same,"Miller units, Mean",[18],240 Miller units
same,"Miller units, single replicate",[18],256 Miller units and 229 Miller units
same,"Miller units, Mean","mtrCDE, third strain (lower plate half, wells 1-6; not named), testosterone 1 µM, left block Plate-4",107 Miller units
same,"Miller units, Mean","mtrCDE, third strain (lower plate half, wells 1-6; not named), testosterone 10 µM, left block Plate-4",177 Miller units
same,"Miller units, Mean","mtrCDE, third strain (lower plate half, wells 1-6; not named), testosterone 25 µM, left block Plate-4",181 Miller units
same,"Miller units, Mean","mtrCDE, third strain (lower plate half, wells 1-6; not named), testosterone 50 µM, left block Plate-4",213 Miller units
same,"Miller units, Mean","mtrCDE, third strain (lower plate half, wells 1-6; not named), testosterone 100 µM, left block Plate-4",227 Miller units
same,"Miller units, Mean","mtrCDE, ΔmtrR, testosterone 1 µM, left block Plate-4",334 Miller units
same,"Miller units, Mean","mtrCDE, ΔmtrR, testosterone 10 µM, left block Plate-4",358 Miller units
